Results reported in US7825155B2, “Oxindole derivative as feeding control agent” (priority 2005, dated 2010).

Key:
[1] = target: T1, human GHSR (growth hormone secretagogue receptor) (Homo sapiens, UniProt Q92847); format: cell-based; conditions: 1 μM compound, 10 nM Ghrelin, human GHSR CHO-K1 cells
T1 construct: host or cells: CHO-K1
Experimental: Assessment of Ghrelin Antagonism Using Human GHSR Stably Expressing Cells
By using cells wherein human GHSR (growth hormone secretagogue receptor) is stably expressed, the effects of compounds of the Examples on elevation of cellular calcium ion concentrations were evaluated when endogenous ligand Ghrelin was added to the cells.
Human GHSR stably expressing CHO-K1 cells (EUROSCREEN) were seeded on 96-well assay plate (Black plate, Clear Bottom (Corning)) in 2×10^4 cells/100 μl/well, and incubated in cell culture device for 1 day at 37° C. under 5% CO2. […]
Ghrelin was combined with an equal amount of the test compound which was prepared with Hanks/Hepes (pH7.4) in a concentration of 10-times of the final concentration, and the mixture was added to the cells in 50 μl/well. Immediately after that, excitation wavelength in 488 nm was measured by FLIPR (Molecular Devices) 80 times at 1 second interval. Ghrelin antagonistic ratio (%) of the compound in the concentration of 1 μM was calculated according to the following equation wherein the values of fluorescence intensity means those obtained by deducting the minimum value from the maximum value. […]
A: Fluorescence intensity in case of adding 1 μM of the compound and 10 nM of Ghrelin
B: Fluorescence intensity in case of no addition of the compound and Ghrelin
C: Fluorescence intensity in case of adding only 10 nM of Ghrelin

[2] = system: Ghrelin-induced feeding increasing mice; experiment: Assessment of feeding in mice (Ghrelin-induced feeding increasing mice); format: in vivo; conditions: ICR mice, compound i.p. 12.5, 25, 50 mg/kg, Ghrelin 250 nmol/kg i.v., 1, 2 and 4 hours
Experimental: Assessment of Feeding in Mice
The effects of compounds of the Examples on the feeding amount in intraperitoneally administering the compound were evaluated using Ghrelin-induced feeding increasing mice.
ICR mice (male, 7-week-old, Charles River Laboratories) were fed in 5 mice in each cage. Food (CE-2, Oriental Yeast Co., Ltd.) and sterile tap water were intaken freely.
ICR mice were intraperitoneally administered the compound (12.5, 25, 50 mg/kg) miscible in 10% polyethylene glycol #400, and immediately after that, intravenously administered Ghrelin (250 nmol/kg) dissolved in saline.
The food weight was measured 4 times in total: just before the administration of Ghrelin, and 1, 2 and 4 hours after the administration. The inhibition ratio was calculated according to the following equation and the integrated feeding amount until each measuring time point. Each treatment group consisted of 10 mice.
Inhibition ratio (%)=(B−C)/(B−A)×100
A: Feeding amount (g) in group administered with only vehicle
B: Feeding amount (g) in group administered with only Ghrelin
C: Feeding amount (g) in group administered with Ghrelin and test compound

T1 sequence (Q92847 whole entry): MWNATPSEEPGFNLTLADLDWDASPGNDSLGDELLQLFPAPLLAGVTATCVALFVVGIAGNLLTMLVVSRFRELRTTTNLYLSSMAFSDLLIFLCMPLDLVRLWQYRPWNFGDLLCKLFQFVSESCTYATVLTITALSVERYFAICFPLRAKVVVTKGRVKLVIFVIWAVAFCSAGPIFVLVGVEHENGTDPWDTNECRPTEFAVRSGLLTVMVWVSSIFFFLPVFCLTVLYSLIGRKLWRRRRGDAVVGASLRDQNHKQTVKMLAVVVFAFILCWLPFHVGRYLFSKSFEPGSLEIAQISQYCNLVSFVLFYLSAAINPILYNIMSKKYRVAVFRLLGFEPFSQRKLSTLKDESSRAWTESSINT

| Structure (SMILES) | Ghrelin antagonistic ratio [1] [%] | Inhibition ratio of feeding amount, maximum [2] [%] |
| --- | --- | --- |
| CCN(CC)[C@H]1C[C@H](CN2C(=O)C(O)(c3ccc(Cl)cc3Cl)c3c2cc(C(N)=O)cc3C(F)(F)F)C1.Cl (stereo partly drawn) [Example 1, 3-(2,4-dichlorophenyl)-1-[trans-3-(diethylamino)-cyclobutylmethyl]-4-trifluoromethyl-3-hydroxy-2-oxoindoline-6-carboxamide Hydrochloride] | 82 | 110 |
| CCN(CC)[C@H]1C[C@H](CN2C(=O)C(O)(c3ccc(Cl)cc3Cl)c3c2cc(-c2ncco2)cc3C(F)(F)F)C1 (stereo partly drawn) [Example 14, 3-(2,4-dichlorophenyl)-1-[trans-3-(diethylamino)-cyclobutylmethyl]-4-trifluoromethyl-3-hydroxy-6-(2-oxazolyl)-1,3-dihydro-2H-indol-2-one] | 74 | – |
